Values joined by “and” are separate entries in the source; they are usually repeats but may differ in a detail not shown here. Equal values may be shown once.
Tests used:
RyR2 [1] = target: T1, RyR2 (Mus musculus, UniProt E9Q401); experiment: Calcium spark frequency in permeabilized Casq2 knockout cardiomyocytes (screen for RyR2 activity); format: cell-based
T1 construct: spontaneous openings of intracellular RyR2 Ca^2+ release channels; endogenous in cells; host or cells: ventricular cardiomyocytes isolated from Casq2-/- mice (saponin-permeabilized in A1, intact in A7)
Method: FIGS. 3(A)-3(E) show a biological screen for cardiac ryanodine receptor (RyR2) activity. Note that ‘ent-24’=9, and ‘ent-18’ refers to structure 8 in FIG. 1, which is also the enantiomer of a natural product. (3A) Calcium spark frequency in permeabilized murine cardiomyocytes was recorded as an index of RyR2 activity. Compounds were screened at 25 uM concentration after 10-minute incubation. *=p<0.001 by one-way ANOVA with Tukey's post-hoc test. (3B) Incubation time was extended to 60 minutes for the 12- and 30-membered rings. (3C) The seco-acid precursors to 12- and 18-membered rings were tested at 25 uM. (3D) Concentration response curve for the 18-membered ring and (3E) 24-membered ring. Cells were incubated for 30 minutes
Activity of Ring-Size Analogues. […] Ventricular cardiomyocytes were isolated, permeabilized with saponin, and incubated with vehicle (DMSO) or 25 μM of selected compound. RyR2 activity was measured in the form of calcium sparks, which are elementary Ca^2+ release events generated by spontaneous openings of intracellular RyR2 Ca^2+ release channels. Importantly, saponin selectively permeabilizes the sarcolemmal membrane, leaving the SR membrane intact and ensuring equivalent access of the compounds to the SR membrane where RyR2 resides.
The compounds were first screened by incubating cardiomyocytes for 10 minutes at 25 μM concentration and compared to vehicle (DMSO) conditions.

Plasma stability ex vivo = format: in vitro ADME; settings: mouse; murine plasma, 37° C., two hours; read-out: parent compound remaining in plasma
Method: FIGS. 11(A-B) show in vivo pharmacokinetics in mice for a compound of the present invention. […] N=3 mice. Plasma collected serially at 0.167, 0.333. 0.5, 1, 3, and 8 hours post-administration. […] Individual data points (grey) shown alongside mean values with connecting lines.
Plasma stability experiments—Drug-free mouse plasma was preincubated in a 96-well polypropylene plate for 30 minutes on a microplate shaker at 37° C. prior to the addition of ent-B1 (final concentration 1900 ng/mL). Drug was added to individual wells (n=3 per compound), mixed thoroughly, and 50 μL of plasma was removed at 0, 15, 30, 45 60, 90, and 120 minutes to evaluate compound stability in mouse plasma at 37° C. Samples removed at each time point were transferred to a 96-well polypropylene plate containing 300 μL of ice-cold acetonitrile containing internal standard (ent-verticilide-d12; 100 ng/mL). Samples were mixed multiple times with a pipette to ensure precipitation of plasma proteins and the plate was covered with an adhesive film to prevent solvent evaporation. […] Peak area ratios of the analyte and internal standard for each sample were analyzed by liquid chromatography coupled to tandem mass spectrometry (LC-MS/MS) and normalized to the area ratio for time point 0 (baseline) to calculate the percent of ent-B1 remaining at each time point. […]

RyR2 [2] = target: T2, RyR2 (Sus scrofa, UniProt A0A5G2R1W3); experiment: [3H]ryanodine ligand binding assay in cardiac SR vesicles; set-up: species or system porcine; settings: relative to vehicle (DMSO)
T2 construct: isolated SR vesicles derived from porcine cardiac muscle; from tissue; host or cells: porcine heart (cardiac sarcoplasmic reticulum vesicles)
Method: RyR2 activity was quantified by the fraction of [^3H]ryanodine bound to RyR2. […] Data are shown as mean±SD (n=6).
[^3H]ryanodine ligand binding assay—[^3H]ryanodine, [9,21-3H(N)] (56 Ci/mmol) was obtained from PerkinElmer. Porcine cardiac SR vesicles were isolated as previously described (Fruen et al., 2000) and incubated with, 200 nM CaM binding peptide, 0.1 μM CaCl2, 20 mM PIPES, 150 mM KCl, 5 mM GSH, 0.1 mg/mL BSA, 1 μg/mL aprotininin, lug/mL leupeptin, and 1 μM DTT for 30 min at 37° C. […] In 96-well plates, cardiac SR membranes (CSR, 3 mg/mL) were pre-incubated with 1% v/v ent-B1 (to yield the indicated drug concentrations) for 30 min, at 22° C., in a solution containing 150 mM KCl, 5 mM GSH, 1 μg/mL Aprotinin/Leupeptin, 1 mM EGTA, and 23 μM or 1.62 mM CaCl2 (100 nM or 30 μM free Ca^2+, respectively as determined by MaxChelator), 0.1 mg/mL BSA, and 20 mM K-PIPES (pH 7.0). Non-specific [^3H]ryanodine binding to SR was assessed by addition of 15 μM non-radioactive ryanodine. Maximal [^3H]ryanodine binding was assessed by addition of 5 mM adenylyl-imidodiphosphate (AMP-PNP), supplemented with 20 mM caffeine. […] Binding of [^3H]ryanodine (7.5 nM) was determined following a 3 h incubation at 37° C. and filtration through grade GF/B glass microfiber filters (Brandel Inc., Gaithersburg, MD, US) using a M96T-Brandel Harvester. […]

T1 sequence (E9Q401 whole entry): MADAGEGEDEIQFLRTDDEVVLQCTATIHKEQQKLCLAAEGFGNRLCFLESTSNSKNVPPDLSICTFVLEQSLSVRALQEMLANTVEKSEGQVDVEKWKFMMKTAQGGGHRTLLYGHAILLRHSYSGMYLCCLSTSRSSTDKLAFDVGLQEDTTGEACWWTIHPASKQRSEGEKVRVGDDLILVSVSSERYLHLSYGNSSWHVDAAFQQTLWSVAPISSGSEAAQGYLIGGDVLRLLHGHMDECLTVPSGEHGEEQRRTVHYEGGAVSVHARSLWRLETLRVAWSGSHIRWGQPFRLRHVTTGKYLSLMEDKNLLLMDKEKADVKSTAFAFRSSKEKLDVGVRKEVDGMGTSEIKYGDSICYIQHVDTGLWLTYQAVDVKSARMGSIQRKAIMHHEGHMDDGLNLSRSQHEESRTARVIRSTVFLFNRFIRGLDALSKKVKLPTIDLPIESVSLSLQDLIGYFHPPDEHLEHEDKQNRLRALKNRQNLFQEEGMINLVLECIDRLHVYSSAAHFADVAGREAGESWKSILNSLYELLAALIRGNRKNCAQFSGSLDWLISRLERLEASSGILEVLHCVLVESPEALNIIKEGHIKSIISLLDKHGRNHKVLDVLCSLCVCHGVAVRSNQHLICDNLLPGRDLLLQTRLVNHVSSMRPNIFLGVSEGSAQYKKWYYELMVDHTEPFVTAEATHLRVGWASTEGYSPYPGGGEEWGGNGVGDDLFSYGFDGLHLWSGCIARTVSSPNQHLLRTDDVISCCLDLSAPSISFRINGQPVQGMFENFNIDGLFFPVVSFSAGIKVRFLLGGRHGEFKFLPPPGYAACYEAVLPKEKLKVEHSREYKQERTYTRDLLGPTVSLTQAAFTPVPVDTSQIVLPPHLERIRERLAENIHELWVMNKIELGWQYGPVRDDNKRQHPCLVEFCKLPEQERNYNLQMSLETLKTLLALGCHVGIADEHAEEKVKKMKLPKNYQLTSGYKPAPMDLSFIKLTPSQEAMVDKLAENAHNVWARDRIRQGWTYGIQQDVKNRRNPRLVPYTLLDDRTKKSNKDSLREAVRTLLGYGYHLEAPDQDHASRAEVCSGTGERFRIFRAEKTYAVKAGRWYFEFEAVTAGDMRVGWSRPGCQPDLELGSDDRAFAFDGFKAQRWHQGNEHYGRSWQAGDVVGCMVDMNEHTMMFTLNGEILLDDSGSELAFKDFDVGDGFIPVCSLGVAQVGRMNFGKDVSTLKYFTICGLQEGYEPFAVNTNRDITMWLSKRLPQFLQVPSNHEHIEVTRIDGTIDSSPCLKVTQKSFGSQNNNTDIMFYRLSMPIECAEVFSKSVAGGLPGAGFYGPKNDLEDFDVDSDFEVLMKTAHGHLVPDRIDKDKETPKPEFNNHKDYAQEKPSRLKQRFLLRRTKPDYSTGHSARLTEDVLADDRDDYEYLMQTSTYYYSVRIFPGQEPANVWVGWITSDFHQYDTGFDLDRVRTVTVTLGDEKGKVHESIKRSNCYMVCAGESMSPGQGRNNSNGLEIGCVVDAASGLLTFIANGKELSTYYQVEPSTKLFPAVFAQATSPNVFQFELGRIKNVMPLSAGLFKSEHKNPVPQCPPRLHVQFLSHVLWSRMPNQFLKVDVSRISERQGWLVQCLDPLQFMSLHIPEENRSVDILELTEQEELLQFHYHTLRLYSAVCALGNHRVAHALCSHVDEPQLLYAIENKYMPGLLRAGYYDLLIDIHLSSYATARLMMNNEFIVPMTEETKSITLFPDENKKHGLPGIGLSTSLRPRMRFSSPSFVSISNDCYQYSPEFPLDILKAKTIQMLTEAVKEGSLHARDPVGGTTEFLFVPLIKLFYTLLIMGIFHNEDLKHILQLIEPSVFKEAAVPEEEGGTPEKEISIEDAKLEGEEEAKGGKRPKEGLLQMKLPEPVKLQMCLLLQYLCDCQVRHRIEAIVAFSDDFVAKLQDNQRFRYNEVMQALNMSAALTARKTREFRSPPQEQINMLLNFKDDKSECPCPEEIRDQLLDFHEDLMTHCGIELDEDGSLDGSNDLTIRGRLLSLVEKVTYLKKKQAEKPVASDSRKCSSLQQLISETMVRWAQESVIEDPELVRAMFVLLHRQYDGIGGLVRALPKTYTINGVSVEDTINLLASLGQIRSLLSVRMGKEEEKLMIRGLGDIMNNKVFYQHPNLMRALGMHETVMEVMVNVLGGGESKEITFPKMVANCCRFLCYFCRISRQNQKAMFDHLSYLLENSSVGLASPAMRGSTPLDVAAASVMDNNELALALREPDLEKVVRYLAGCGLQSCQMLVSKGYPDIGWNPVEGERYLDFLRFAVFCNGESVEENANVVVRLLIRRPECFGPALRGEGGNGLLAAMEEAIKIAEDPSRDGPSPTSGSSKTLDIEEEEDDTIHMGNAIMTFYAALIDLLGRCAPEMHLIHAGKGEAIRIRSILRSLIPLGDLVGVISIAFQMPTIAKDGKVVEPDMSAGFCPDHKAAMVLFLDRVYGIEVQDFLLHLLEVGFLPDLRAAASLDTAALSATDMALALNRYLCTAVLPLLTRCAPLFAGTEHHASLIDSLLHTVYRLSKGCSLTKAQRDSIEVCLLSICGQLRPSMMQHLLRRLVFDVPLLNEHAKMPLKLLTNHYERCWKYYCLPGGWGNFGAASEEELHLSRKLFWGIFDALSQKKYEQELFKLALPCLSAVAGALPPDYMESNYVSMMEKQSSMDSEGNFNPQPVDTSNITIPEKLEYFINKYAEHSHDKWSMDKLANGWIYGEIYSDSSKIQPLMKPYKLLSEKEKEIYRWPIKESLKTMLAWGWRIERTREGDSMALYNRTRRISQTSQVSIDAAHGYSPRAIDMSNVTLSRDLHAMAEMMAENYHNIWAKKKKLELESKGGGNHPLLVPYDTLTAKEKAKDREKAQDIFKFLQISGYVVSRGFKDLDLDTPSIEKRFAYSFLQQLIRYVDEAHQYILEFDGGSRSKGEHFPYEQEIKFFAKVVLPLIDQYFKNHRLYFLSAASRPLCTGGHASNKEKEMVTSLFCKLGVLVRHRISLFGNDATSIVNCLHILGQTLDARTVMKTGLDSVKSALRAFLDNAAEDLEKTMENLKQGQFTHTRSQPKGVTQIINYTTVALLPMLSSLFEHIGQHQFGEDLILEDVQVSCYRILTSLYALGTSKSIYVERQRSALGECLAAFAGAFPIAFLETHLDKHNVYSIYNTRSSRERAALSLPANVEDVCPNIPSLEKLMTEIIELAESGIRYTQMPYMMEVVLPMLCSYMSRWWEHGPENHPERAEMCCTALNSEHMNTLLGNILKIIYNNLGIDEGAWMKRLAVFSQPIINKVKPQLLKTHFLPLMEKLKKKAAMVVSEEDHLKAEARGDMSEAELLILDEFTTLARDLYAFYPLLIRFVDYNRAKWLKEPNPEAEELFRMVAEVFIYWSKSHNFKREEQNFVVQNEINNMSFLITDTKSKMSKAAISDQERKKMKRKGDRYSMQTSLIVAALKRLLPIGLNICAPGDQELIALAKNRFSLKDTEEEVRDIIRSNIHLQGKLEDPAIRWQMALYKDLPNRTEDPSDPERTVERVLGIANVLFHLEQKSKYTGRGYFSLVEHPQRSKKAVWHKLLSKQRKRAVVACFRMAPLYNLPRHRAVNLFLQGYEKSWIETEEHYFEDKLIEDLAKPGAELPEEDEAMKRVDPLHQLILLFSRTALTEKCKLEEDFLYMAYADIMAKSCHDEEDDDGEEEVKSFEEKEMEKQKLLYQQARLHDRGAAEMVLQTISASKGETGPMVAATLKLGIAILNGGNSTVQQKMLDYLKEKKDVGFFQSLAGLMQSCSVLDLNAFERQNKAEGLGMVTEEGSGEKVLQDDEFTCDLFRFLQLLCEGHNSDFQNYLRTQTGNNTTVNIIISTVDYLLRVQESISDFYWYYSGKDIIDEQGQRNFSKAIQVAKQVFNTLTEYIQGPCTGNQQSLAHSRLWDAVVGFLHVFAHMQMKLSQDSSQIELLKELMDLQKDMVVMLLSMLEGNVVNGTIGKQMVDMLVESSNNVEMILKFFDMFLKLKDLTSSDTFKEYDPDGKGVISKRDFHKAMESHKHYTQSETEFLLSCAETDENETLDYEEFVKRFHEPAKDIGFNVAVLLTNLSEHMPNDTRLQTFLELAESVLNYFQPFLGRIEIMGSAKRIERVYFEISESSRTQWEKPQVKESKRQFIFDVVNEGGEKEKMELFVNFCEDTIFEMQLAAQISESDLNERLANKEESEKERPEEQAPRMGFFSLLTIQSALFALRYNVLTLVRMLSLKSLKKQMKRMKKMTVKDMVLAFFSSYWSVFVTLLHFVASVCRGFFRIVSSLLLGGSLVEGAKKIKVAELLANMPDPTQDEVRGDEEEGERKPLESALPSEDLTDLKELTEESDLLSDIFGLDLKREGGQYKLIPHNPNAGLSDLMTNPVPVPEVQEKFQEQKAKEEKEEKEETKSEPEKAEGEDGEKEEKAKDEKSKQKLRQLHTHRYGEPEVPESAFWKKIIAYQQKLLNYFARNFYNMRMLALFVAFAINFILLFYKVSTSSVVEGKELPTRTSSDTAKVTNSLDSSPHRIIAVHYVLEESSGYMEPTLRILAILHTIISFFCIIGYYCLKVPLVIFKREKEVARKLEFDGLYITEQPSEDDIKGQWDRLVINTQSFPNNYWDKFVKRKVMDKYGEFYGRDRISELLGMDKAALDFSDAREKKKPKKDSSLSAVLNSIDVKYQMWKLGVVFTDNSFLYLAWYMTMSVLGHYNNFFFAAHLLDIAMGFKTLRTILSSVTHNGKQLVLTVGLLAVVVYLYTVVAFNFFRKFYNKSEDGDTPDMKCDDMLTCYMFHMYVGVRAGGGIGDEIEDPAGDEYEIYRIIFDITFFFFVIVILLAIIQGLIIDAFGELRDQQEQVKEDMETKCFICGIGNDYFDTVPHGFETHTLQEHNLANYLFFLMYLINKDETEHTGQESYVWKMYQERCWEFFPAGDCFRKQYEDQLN

CCCCC[C@@H]1OC(=O)[C@@H](C)N(C)C(=O)[C@H](CCCCC)OC(=O)[C@@H](C)N(C)C(=O)[C@H](CCCCC)OC(=O)[C@@H](C)N(C)C1=O (single isomer, unassigned) [ent-B1]
RyR2-mediated Ca2+ spark frequency (RyR2 [1]; 25 μM, 10 minutes incubation, vs vehicle (DMSO)): significantly inhibited
activity in the calcium spark assay (summary statement) (RyR2 [1]; listed as 8): potent inhibitor
activity in the calcium spark assay (summary statement) (RyR2 [1]; listed as 18-membered COD): potent
remaining at 2 h, 1900 ng/mL (Plasma stability ex vivo): ~95%
IC50 (RyR2 [2]): 1900 nM and 1930 nM

From US20240174718A1, “RYANODINE RECEPTOR INHIBITOR COMPOUNDS AND METHODS RELATING THERETO” (Vanderbilt University, priority 2022, published 2024)
